Source: patent publication US10118902B2 (Sanford Burnham Prebys Medical Discovery Institute, priority 2014, dated 2018)
Like-named read-outs stand apart in the source and are kept apart here.

Biological target: neurotensin receptor 1 (NTR1) (Homo sapiens (Human), UniProt P30989)
Test: NTR1 dose response, high-content imaging beta-arrestin-GFP assay in NTR1-U2OS cells
Assay type: cell-based
Design: scale not given here
Description: The cell lines utilized in the high-content imaging assays, which include the NTR1-, NTR2-, and GPR35-U2OS osteosarcomas, were obtained from the laboratory of Dr. Lawrence Barak at the Duke University Medical Center. The media used in the culture of the cell lines, as well as the assays themselves, consisted of Minimum Essential Medium (15-010-CM) and L-glutamine (25-005-CL) from Cellgro/Mediatech (Manassas, Va.), fetal bovine serum (SH30396.03) from Hyclone (Logan, Utah), penicillin-streptomycin solution (PS-20) from Omega Scientific in Tarzana, Calif., G418 (ant-gn-1) from Invivogen (San Diego, Calif.), and zeocin (R250-01) from Invitrogen (Carlsbad, Calif.). Cell lines were cultured in T225 tissue culture flasks (431082) supplied by Corning (Corning, N.Y.). Additional reagents employed include Dulbecco's Phosphate-Buffered Saline (DPBS) (21-031CV) from Cellgro/Mediatech, Trypsin-EDTA 0.05% (25300) from Invitrogen, paraformaldehyde (30528954) from Acros Organics (Geel, Belgium), Hoechst 33342 (H3570) from Invitrogen. The high-content assays were run in 1536-well plates (29326) supplied by Aurora Biotechnology (Poway, Calif.) and utilized aluminum plate seals (T592100) from E&K Scientific (Santa Clara, Calif.). […]
The high-content imaging based NTR1 primary screen in 1536-well format was utilized to assay the MLSMR library of chemical entities in the following manner. On day one, 4 uL of a cell suspension containing 350,000 NTR1-U2OS cells per mL is added to each well of a 1536-well assay plate. Cells are plated in MEM medium containing 2.5% Fetal Bovine Serum, 1% Penicillin/Streptomycin solution, 1% L-Glutamine, 400 ug/mL G418, and 200 ug/mL Zeocin. The assay plates are then incubated overnight at 37° C., under 5% CO2. Following the overnight incubation, a volume of 60 nL of the compounds at 2 mM in DMSO (final 20 μM, 1% DMSO) was transferred to columns 5-48 of the assay plates using a LabCyte Echo Liquid Handler. Next, 60 nL of DMSO were dispensed to columns 1-4, which served as the positive and neutral control wells. […] The assay plates were centrifuged on an Eppendorf 5810 centrifuge at 1000 rpm for 1 min to ensure even liquid levels in the wells of the assay plates. The assay plates were then returned to the incubator for 1 hour. Following the hour-long incubation at 37° C., the cells in each well were fixed with 4 uL of 6% paraformaldehyde added with a Multidrop Combi. The assay plates were centrifuged as before and incubated at room temperature for 1 hour. On the Kalypsys, plates were then aspirated down to 2.5 uL per well and washed twice with 11 uL per well of DPBS, followed by a final aspiration to 2.5 uL per well. On the Combi dispenser, 5 uL of 5 ug/mL Hoechst 33342 diluted in DPBS was added to each well of assay plates. The plates were again centrifuged as previously described, sealed, and incubated for at least 1 hour prior to being loaded on a PerkinElmer Opera QEHS.
Image acquisition was performed with a 45 plate capacity loader/stacker and the following settings: 40×0.6 NA air objective, acquisition camera set to 2-by-2 binning for an image size of 688 by 512 pixels, beta-arrestin-GFP acquired using 488 nm laser excitation and 540/75 nm emission filters, DAPI (nuclei) using 365 nm Xenon lamp excitation and 450/50 nm emission filters, 3 fields per well. Image analysis was performed using the Acapella Spot Detection Algorithm. For analysis settings and the metrics employed in the data analyses, please refer to supplemental information.
Compounds that were successfully confirmed in quadruplicate at 20 uM were then run in dose response in the primary assay. As with the single concentration hit confirmation, the assay was performed in an identical manner as the primary screen with the following modifications. […]

Sequence of neurotensin receptor 1 (NTR1) (P30989 whole entry, species assumed): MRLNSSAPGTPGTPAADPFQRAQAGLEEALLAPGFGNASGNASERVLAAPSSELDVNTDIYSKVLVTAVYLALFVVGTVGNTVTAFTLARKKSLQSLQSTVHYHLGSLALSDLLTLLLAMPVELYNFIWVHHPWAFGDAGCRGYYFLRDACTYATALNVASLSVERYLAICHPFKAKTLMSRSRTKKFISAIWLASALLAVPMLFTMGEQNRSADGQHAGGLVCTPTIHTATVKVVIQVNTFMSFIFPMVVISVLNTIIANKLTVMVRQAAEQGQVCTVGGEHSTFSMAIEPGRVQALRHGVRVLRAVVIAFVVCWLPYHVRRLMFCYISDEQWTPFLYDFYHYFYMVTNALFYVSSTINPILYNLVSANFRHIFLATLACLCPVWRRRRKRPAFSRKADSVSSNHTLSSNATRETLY

For COc1ccccc1C1CCN(c2nc(C3(C)CC3)nc3ccc(N(C)CCO)cc23)CC1 [Example 22, 2-{[4-[4-(2-methoxy-phenyl)-piperidin-1-yl]-2-(1-methyl-cyclopropyl)-quinazolin-6-yl]-methyl-amino}-ethanol], the EC50 (read-out: EC50) was under 0.5 µM.
COc1ccccc1C1CCN(c2nc(C3(C)CC3)nc3ccc(N(C)CCN(C)C)cc23)CC1 [Example 23, N-[4-[4-(2-methoxy-phenyl)-piperidin-1-yl]-2-(1-methyl-cyclopropyl)-quinazolin-6-yl]-N,N′,N′-trimethyl-ethane-1,2-diamine] showed an EC50 (read-out: EC50) of over 10 µM.
For COc1ccccc1C1CCN(c2nc(C3(C)CC3)nc3ccc(N(C)CCN4CCCC4)cc23)CC1 [Example 24, [4-[4-(2-methoxy-phenyl)-piperidin-1-yl]-2-(1-methyl-cyclopropyl)-quinazolin-6-yl]-methyl-(2-pyrrolidin-1-yl-ethyl)-amine], the EC50 (read-out: EC50) was 2 to 10 µM.
CN(C)c1ccccc1C1CCN(c2nc(C3(C)CC3)nc3ccc(N(C)CCO)cc23)CC1 [Example 25, 2-{[4-[4-(2-dimethylamino-phenyl)-piperidin-1-yl]-2-(1-methyl-cyclopropyl)-quinazolin-6-yl]-methyl-amino}-ethanol] was tested, and the EC50 (read-out: EC50) was 2 to 10 µM.
Work on COCCN(C)c1ccc2nc(C3(C)CC3)nc(N3CCC(c4ccccc4N(C)C)CC3)c2c1 [Example 26, [4-[4-(2-dimethylamino-phenyl)-piperidin-1-yl]-2-(1-methyl-cyclopropyl)-quinazolin-6-yl]-(2-methoxy-ethyl)-methyl-amine] yielded an EC50 (read-out: EC50) of over 10 µM.
In the case of CN(C)c1ccccc1C1CCN(c2nc(C3(C)CC3)nc3ccc(N(C)CCN4CCOCC4)cc23)CC1 [Example 27], the EC50 (read-out: EC50) is reported as over 10 µM.
Work on CN(C)CCN(C)c1ccc2nc(C3(C)CC3)nc(N3CCC(c4ccccc4N(C)C)CC3)c2c1 [Example 28, N-[4-[4-(2-dimethylamino-phenyl)-piperidin-1-yl]-2-(1-methyl-cyclopropyl)-quinazolin-6-yl]-N,N′,N′-trimethyl-ethane-1,2-diamine] yielded an EC50 (read-out: EC50) of over 10 µM.
Compound CN(C)c1ccccc1C1CCN(c2nc(C3(C)CC3)nc3ccc(N(C)CCN4CCCC4)cc23)CC1 [Example 29, [4-[4-(2-dimethylamino-phenyl)-piperidin-1-yl]-2-(1-methyl-cyclopropyl)-quinazolin-6-yl]-methyl-(2-pyrrolidin-1-yl-ethyl)-amine] has an EC50 (read-out: EC50) of over 10 µM.
Compound CN(CCO)c1ccc2nc(C3(C)CC3)nc(N3CCC(c4ccccc4N4CCC4)CC3)c2c1 [Example 30, 2-{[4-[4-(2-azetidin-1-yl-phenyl)-piperidin-1-yl]-2-(1-methyl-cyclopropyl)-quinazolin-6-yl]-methyl-amino}-ethanol] has an EC50 (read-out: EC50) of 2 to 10 µM.
Work on COCCN(C)c1ccc2nc(C3(C)CC3)nc(N3CCC(c4ccccc4N4CCC4)CC3)c2c1 [Example 31, [4-[4-(2-azetidin-1-yl-phenyl)-piperidin-1-yl]-2-(1-methyl-cyclopropyl)-quinazolin-6-yl]-(2-methoxy-ethyl)-methyl-amine] yielded an EC50 (read-out: EC50) of over 10 µM.
With CN(CCN1CCOCC1)c1ccc2nc(C3(C)CC3)nc(N3CCC(c4ccccc4N4CCC4)CC3)c2c1 [Example 32, [4-[4-(2-azetidin-1-yl-phenyl)-piperidin-1-yl]-2-(1-methyl-cyclopropyl)-quinazolin-6-yl]-methyl-(2-morpholin-4-yl-ethyl)-amine] the EC50 (read-out: EC50) was over 10 µM.
With COCCN(C)c1ccc2nc(C3(C)CC3)nc(N3CCC(c4ccccc4OC)CC3)c2c1 [Example 33, N-(2-methoxyethyl)-4-(4-(2-methoxyphenyl)piperidin-1-yl)-N-methyl-2-(1-methylcyclopropyl)quinazolin-6-amine] the EC50 (read-out: EC50) was 2 to 10 µM.
COc1ccccc1C1CCN(c2nc(C3(C)CC3)nc3ccc(N(C)CCN4CCOCC4)cc23)CC1 [Example 34, 4-(4-(2-methoxyphenyl)piperidin-1-yl)-N-methyl-2-(1-methylcyclopropyl)-N-(2-morpholinoethyl) quinazolin-6-amine] was tested, and the EC50 (read-out: EC50) was 2 to 10 µM.
In the case of CN(C)CCN(C)c1ccc2nc(C3(C)CC3)nc(N3CCC(c4ccccc4N4CCC4)CC3)c2c1 [Example 35, N-[4-[4-(2-azetidin-1-yl-phenyl)-piperidin-1-yl]-2-(1-methyl-cyclopropyl)-quinazolin-6-yl]-N,N′,N′-trimethyl-ethane-1,2-diamine], the EC50 (read-out: EC50) is reported as over 10 µM.
CN(CCN1CCCC1)c1ccc2nc(C3(C)CC3)nc(N3CCC(c4ccccc4N4CCC4)CC3)c2c1 [Example 36, [4-[4-(2-azetidin-1-yl-phenyl)-piperidin-1-yl]-2-(1-methyl-cyclopropyl)-quinazolin-6-yl]-methyl-(2-pyrrolidin-1-yl-ethyl)-amine] gave an EC50 (read-out: EC50) of over 10 µM.
Work on COc1ccccc1C1CCN(c2nc(C3CCCC3)nc3ccc(N(C)C)cc23)CC1 [Example 37, {2-cyclopentyl-4-[4-(2-methoxy-phenyl)-piperidin-1-yl]-quinazolin-6-yl}-dimethyl-amine] yielded an EC50 (read-out: EC50) of over 10 µM.
Work on COc1ccccc1C1CCN(c2nc(C3CCCC3)nc3ccc(N(C)CCO)cc23)CC1 [Example 38, 2-({2-cyclopentyl-4-[4-(2-methoxy-phenyl)-piperidin-1-yl]-quinazolin-6-yl}-methyl-amino)-ethanol] yielded an EC50 (read-out: EC50) of 2 to 10 µM.
Compound COCCN(C)c1ccc2nc(C3CCCC3)nc(N3CCC(c4ccccc4OC)CC3)c2c1 [Example 39, {2-cyclopentyl-4-[4-(2-methoxy-phenyl)-piperidin-1-yl]-quinazolin-6-yl}-(2-methoxy-ethyl)-methyl-amine] has an EC50 (read-out: EC50) of over 10 µM.
Work on CCCN(C)c1ccc2nc(C3CCCC3)nc(N3CCC(c4ccccc4OC)CC3)c2c1 [Example 40] yielded an EC50 (read-out: EC50) of over 10 µM.
With COc1ccccc1C1CCN(c2nc(C3CCCC3)nc3ccc(N(C)CCN4CCOCC4)cc23)CC1 [Example 41] the EC50 (read-out: EC50) was over 10 µM.
In the case of COc1ccccc1C1CCN(c2nc(C3CCC3)nc3ccc(N(C)C)cc23)CC1 [Example 42, {2-cyclobutyl-4-[4-(2-methoxy-phenyl)-piperidin-1-yl]-quinazolin-6-yl}-dimethyl-amine], the EC50 is reported as “C or D”.
COc1ccccc1C1CCN(c2nc(C3CCC3)nc3ccc(N(C)CCO)cc23)CC1 [Example 43, 2-({2-cyclobutyl-4-[4-(2-methoxy-phenyl)-piperidin-1-yl]-quinazolin-6-yl}-methyl-amino)-ethanol] gave an EC50 (read-out: EC50) of 0.5 to 2 µM.
COCCN(C)c1ccc2nc(C3CCC3)nc(N3CCC(c4ccccc4OC)CC3)c2c1 [Example 44] was tested, and the EC50 (read-out: EC50) was 2 to 10 µM.
For CCCN(C)c1ccc2nc(C3CCC3)nc(N3CCC(c4ccccc4OC)CC3)c2c1 [Example 45, {2-cyclobutyl-4-[4-(2-methoxy-phenyl)-piperidin-1-yl]-quinazolin-6-yl}-methyl-propyl-amine], the EC50 (read-out: EC50) was over 10 µM.
COc1ccccc1C1CCN(c2nc(C3CCC3)nc3ccc(N(C)CCN4CCOCC4)cc23)CC1 [Example 46, {2-cyclobutyl-4-[4-(2-methoxy-phenyl)-piperidin-1-yl]-quinazolin-6-yl}-methyl-(2-morpholin-4-yl-ethyl)-amine] showed an EC50 (read-out: EC50) of 2 to 10 µM.
COc1ccccc1C1CCN(c2nc(C3(C(F)(F)F)CC3)nc3ccc(N(C)CCO)cc23)CC1 [Example 47, 2-{[4-[4-(2-methoxy-phenyl)-piperidin-1-yl]-2-(1-trifluoromethyl-cyclopropyl)-quinazolin-6-yl]-methyl-amino}-ethanol] was tested, and the EC50 (read-out: EC50) was under 0.5 µM.
COc1ccccc1C1CCN(c2nc(C3(C(F)(F)F)CC3)nc3ccc(N(C)CCN4CCOCC4)cc23)CC1 [Example 48] was tested, and the EC50 (read-out: EC50) was 2 to 10 µM.
CN(C)c1ccccc1C1CCN(c2nc(C3(C(F)(F)F)CC3)nc3ccc(N(C)CCO)cc23)CC1 [Example 49, 2-{[4-[4-(2-dimethylamino-phenyl)-piperidin-1-yl]-2-(1-trifluoromethyl-cyclopropyl)-quinazolin-6-yl]-methyl-amino}-ethanol] showed an EC50 (read-out: EC50) of 0.5 to 2 µM.
